Test results from PubChem BioAssay (NCI).
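Five compound concentrations were applied to cells in 96-well plates for 48 hours; endpoints were derived by simple linear interpolation of the resulting dose-response curve. TGI denotes the concentration required for complete inhibition of growth.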

Legend:
Test in all cases: DTP human tumour cell line panel, 48 h
[1] = system: ACHN renal
[2] = system: SK-MEL-28 melanoma
[3] = system: NCI-H226 lung
[4] = system: HCT-116 colon
[5] = system: A549 NSCLC
[6] = system: 786-0 renal
[7] = system: HOP-62 NSCLC
[8] = system: MDA-MB-435
[9] = system: A498 renal
[10] = system: MCF7 breast
[11] = system: UO-31 renal
[12] = system: NCI-H522 lung
[13] = system: SF-539 CNS
[14] = system: SNB-75 CNS
[15] = system: HT29 colon
[16] = system: SW-620 colon
[17] = system: LOX IMVI melanoma
[18] = system: SN12C renal
[19] = system: NCI-H23 lung
[20] = system: MDA-N
[21] = system: BT-549 breast
[22] = system: OVCAR-4 ovarian
[23] = system: SF-268 CNS
[24] = system: CAKI-1 renal
[25] = system: RXF 393 renal
[26] = system: SK-MEL-2 melanoma
[27] = system: SR leukemia
[28] = system: SF-295 CNS
[29] = system: TK-10 renal
[30] = system: NCI/ADR-RES ovarian
[31] = system: MALME-3M melanoma
[32] = system: SK-MEL-5 melanoma
[33] = system: KM12 colon
[34] = system: IGROV1 ovarian
[35] = system: HS 578T breast
[36] = system: SNB-19 CNS
[37] = system: U251 CNS
[38] = system: COLO 205 colon
[39] = system: OVCAR-8 ovarian
[40] = system: DU-145 prostate
[41] = system: UACC-257 melanoma
[42] = system: MDA-MB-231 breast
[43] = system: HL-60(TB) leukemia
[44] = system: CCRF-CEM leukemia
[45] = system: MOLT-4 leukemia
[46] = system: M14 melanoma
[47] = system: NCI-H460 lung
[48] = system: RPMI-8226 leukemia
[49] = system: HOP-92 NSCLC
[50] = system: HCC-2998 colon
[51] = system: EKVX NSCLC
[52] = system: OVCAR-3 ovarian
[53] = system: K-562 leukemia
[54] = system: T-47D breast

Measured: TGI

CC(=O)Oc1ccc2oc(=O)cc(C)c2c1
> 100 µM: [1] | [2] | [3] | [4] | [5] | [6] | [7] | [8] | [9] | [10] | [11] | [12] | [13] | [14] | [15] | [16] | [17] | [18] | [19] | [20] | [21] | [22] | [23] | [24] | [25] | [26] | [27] | [28] | [29] | [30] | [31] | [32] | [33] | [34] | [35] | [36] | [37] | [38] | [39] | [40] | [41] | [42] | [43] | [44] | [45] | [46] | [47] | [48] | [49] | [50] | [51] | [52] | [53] | [54]
